According to patent EP1123387B1, “MN GENE AND PROTEIN” (INSTITUTE OF VIROLOGY, priority 1998, dated 2000):
Like-named read-outs stand apart in the source and are kept apart here. Where a SMILES comes first, the peptide text is derived from it.

Columns and labels:
[1] = Tolerance of cell cultures to acetazolamide; type: cell-based, mouse; settings: mouse, nih3t3 cells; confluent cultures, 3 days; read-out: concentration tolerated without any signs of toxicity and without any effect on cell morphology
[2] = system: NIH3T3 cells; experiment: Tolerance of cell cultures to acetazolamide; type: cell-based, mouse; settings: sparse cultures
[3] = system: HeLa; experiment: Tolerance of cell cultures to acetazolamide; type: cell-based, human; settings: sparse cultures
[4] = Tolerance of cell cultures to acetazolamide; type: cell-based, human; settings: human, hela cells; confluent cultures, 3 days; read-out: concentration tolerated without any signs of toxicity and without any effect on cell morphology
[5] = system: NIH3T3 cells freshly transformed with the [pGD.MN + MLV] complex; experiment: Effect on morphologic transformation by MN; type: cell-based, mouse; settings: 10^-5M, 4 days of incubation
Experimental: Thus, 10^-5M acetazolamide was added to NIH3T3 cells freshly transformed with the [pGD.MN + MLV] complex. After 4 days of incubation, the colonies were fixed and stained. No difference was seen between cells growing in the presence or absence of acetazolamide; both were indistinguishable from correctly transformed NIH3T3 cells. Thus, the enzymatic activity of carbonic anhydrase is not relevant for the transforming activity of MN protein.

[6] = system: Rat2TK- cells and C33 human cervical carcinoma cells transfected with pMN-HSVtk
[7] = system: MAb M75; experiment: Competition ELISA with M75 (antigen competing for M75); type: binding, mouse; settings: for concentration causing 50% inhibition: GST-MN adsorbed, MAb 75 ascites fluid 10^-6; for reactive with the M75 MAb: test not given
Experimental: (§1) ELISA. Purified GST-MN [Zavada et al. (1993), supra] at concentration 10 ng /ml in carbonate buffer pH 9.2 was adsorbed for 3 h in Maxisorb strips (NUNC). After washing and blocking (1 h) with 0.05% Tween 20 in PBS, 50µl/well of the antibody + antigen mixtures were added. […] These mixtures were adsorbed for 1.5 h, followed by washing with Tween-PBS. Bound antibody was detected by antimouse lgG conjugate with peroxidase (SwAM-Px, SEVAC, Prague), diluted 1:1000. In the color reaction OPD (o-phenylenediamine dihydrochloride, Sigma) 1 mg/ml in 0.1 M citrate buffer pH 5.0 was used. To this H2O2 was added to final concentration 0.03%. This system is balanced so as to allow assay for antigen competing for M75 as well as for peptides binding to the epitope of immobilized GST-MN.
Identification of the epitope recognized by Mab M75. Preliminary mapping of M75 epitope employing partial sequences of extracellular parts of MN/CA9 cDNA expressed from bacterial vectors and tested on Western blots located it in PG region. For exact mapping, our strategy was to synthesize partially overlapping oligopeptides of 15-25 aa covering the PG domain and test them in competition ELISA with M75. According to the results, this was followed by a series of 6-12 aa oligopeptides. A major part of the PG domain consists of a 6-fold tandem repeat of 6 aa (aa 61 - 96) [SEQ ID NO: 97]; 4 repeats are identical (GEEDLP) [SEQ ID NO: 98] and 2 contain 2 aa exchanged (SEEDSP [SEQ ID NO: 141] and REEDPP [SEQ ID NO: 142]).

[8] = target: T1, epitope of immobilized GST-MN (Homo sapiens, UniProt Q16790); experiment: Competition ELISA (peptides binding to the epitope of immobilized GST-MN); settings: nonapeptides of 7 + 2 aa
T1 construct: expressed from pGEX-3X-MN containing the cDNA for the MN protein without the signal peptide; made in house; host or cells: bacteria (E. coli XL1-Blue)
Experimental: as §1
MN/CA IX. As an alternative to monoclonal antibodies, we set out to select oligopeptides exerting affinity to M75 epitope as well as to MN/CA IX receptor binding site from a phage display library of random heptapeptides - Ph.D.-7. Our aim was to select phages containing the desired heptapeptides by panning on immobilized peptide SEQ ID NO: 106 and subsequent elution with M75. Eluted phage was multiplied in appropriate bacteria and subjected to 4 more cycles of panning and elution. From the selected phage population, 10 plaques were picked, amplified and the heptapeptide-coding region was sequenced. Only 3 heptapeptides were represented. Those three heptapeptides, after adding alanine on both sides, are the following nonapeptides: […] [SEQ ID NO: 137]; […] [SEQ ID NO: 138]; and […] [SEQ ID NO: 139]. The last heptapeptide, synthesized again with added terminal alanines as nonapeptide […] [SEQ ID NO: 140], was identified by panning on GST-MN and eluted with acetazolamide. This last peptide has affinity to the active site of MN/CA IX carbonic anhydrase. We synthesized these peptides of 7 + 2 aa and tested them in competition ELISA and in cell adhesion inhibition. […] In all of those 4 nonapeptides, the C-terminal […] as amide.

[9] = target: MN/CA IX (Homo sapiens, UniProt Q16790); experiment: Cell adhesion assay of Example 2 (inhibition of cell attachment to MN/CA IX dots); type: cell-based; settings: nonapeptides of 7 + 2 aa

Compound | reactive with the M75 MAb [7] | activity in competition ELISA [8] | activity in cell adhesion inhibition [9] | other results
CC(=O)Nc1nnc(S(N)(=O)=O)s1 [acetazolamide] | – | – | – | MNTC at 72 h [1]: 10 to 1000 µM; cell growth ([2]; 10^-4M): partial inhibition; cell growth ([2]; 10^-5M): did not inhibit cell growth; cell growth ([3]; 10^-4M): partial inhibition; cell growth ([3]; 10^-5M): did not inhibit cell growth; MNTC at 72 h [4]: 10 to 1000 µM; difference between transformed cells growing in the presence or absence of the drug [5]: No difference
Nc1nc(O)c2ncn(COC(CO)CO)c2n1 [GVC, ganciclovir] | – | – | – | cells killed [6]: up to 95%
GGSSGEDDPLGEEDLPSEEDSPC [SEQ ID NO: 104] | reactive | – | – | concentration causing 50% inhibition ([7]; competition ELISA): 1 ng/mL
CC[C@H](C)[C@H](NC(=O)[C@H](C)N)C(=O)N[C@H](C(=O)N[C@@H](Cc1ccccc1)C(=O)N[C@@H](CC(N)=O)C(=O)N[C@@H](C)C(=O)N[C@@H](CCC(N)=O)C(=O)N[C@@H](Cc1ccc(O)cc1)C(=O)N[C@@H](C)C(N)=O)[C@@H](C)O [SEQ ID NO: 138] (H-AITFNAQYA-NH2) | – | highest activity | highest activity | –
GEEDLPSEEDSPREEDPPGEEDLPGEC [SEQ ID NO: 105] | reactive | – | – | fold less active (than SEQ ID NOS: 104 and 106) ([7]; competition ELISA): 1000 x
CC(C)C[C@H](NC(=O)[C@@H]1CCCN1C(=O)[C@H](CO)NC(=O)[C@H](CCCNC(=N)N)NC(=O)[C@@H](NC(=O)[C@H](CCC(N)=O)NC(=O)CNC(=O)[C@H](C)N)[C@@H](C)O)C(=O)N[C@@H](C)C(N)=O [SEQ ID NO: 140] (H-AGQTRSPLA-NH2) | – | inactive | inactive | –
CC(C)[C@H](NC(=O)[C@@H]1CCCN1C(=O)[C@H](C)NC(=O)[C@H](CO)NC(=O)[C@H](C)NC(=O)[C@H](CO)NC(=O)[C@H](C)N)C(=O)N[C@@H](CO)C(=O)N[C@@H](C)C(N)=O [SEQ ID NO: 139] (H-ASASAPVSA-NH2) | – | marginally positive | marginally positive only in ELISA | –
CSCC[C@H](NC(=O)[C@H](CCCCN)NC(=O)[C@H](CCCCN)NC(=O)[C@H](C)N)C(=O)N[C@@H](CCCCN)C(=O)N[C@@H](CCCNC(=N)N)C(=O)N[C@@H](CCCNC(=N)N)C(=O)N[C@@H](CCCCN)C(=O)N[C@@H](C)C(N)=O [SEQ ID NO: 137] (H-AKKMKRRKA-NH2) | – | less active | less active | –
EDPPGEEDLPGEEDLPGEEDLPEVC [SEQ ID NO: 106] | reactive | – | – | concentration causing 50% inhibition ([7]; competition ELISA): 1 ng/mL
